The record followed here is article PMC3937722, “Biochemical studies on a versatile esterase that is most catalytically active with polyaromatic esters” (Microbial Biotechnology, 2014).

As a reminder, the Km is the concentration of substrate that gives half-maximal velocity.

The first experiment has as its system T1, CN1E1.
T1 construct: catalytic triad Ser155, Asp250, His280
As to the kind of experiment: ester hydrolysis kinetics. Format: biochemical, uncultured bacterium. To be noted: 5 mM EPPS pH 8.0, 40°C. An excerpt: ester hydrolysis kinetics on CN1E1
With `COC(=O)/C=C/c1cc(O)ccc1O` [2,5-Dihydroxycinnamic acid methyl ester], the Km was found to be 1060 ± 60 µM.
The same measure, in the same setting: for `COC(=O)c1ccc2cc3ccccc3cc2c1` [Anthracene-2-carboxylic acid methyl ester] the value was 1470 ± 50 µM; for `O=Cc1ccc(C(=O)OCc2ccccc2)cc1` [Benzoic acid, 4-formyl-, phenylmethyl ester], 640 ± 60 µM.
As for `CCCCOC(C)=O` [Butyl acetate], the Km came out at 2100 ± 170 µM.
On the same count and under the same terms, for `COC(=O)c1ccccc1C(=O)OC` [Dimethyl phthalate] the value was 1590 ± 100 µM.
Take `COC(=O)CBr` [Methyl bromoacetate]: the Km amounted to 1700 ± 90 µM.
Still for that read-out and setting: for `COC(=O)c1ccc2ccc3ccccc3c2c1` [Methyl phenanthrene-3-carboxylate] the value was 1600 ± 90 µM.
Same read-out and setting: under `COC(=O)c1cc2ccccc2c2ccccc12` [Methyl phenanthrene-9-carboxylate] stands 530 ± 30 µM; under `CC(=O)Oc1ccccc1` [Phenyl acetate], 940 ± 50 µM.
On the same count and under the same terms, for `CCOC(=O)c1ccc(O)c(O)c1` [Protocatechuic acid ethyl ester] the value was 1140 ± 60 µM; for `CC(=O)OC[C@H]1OC=C[C@@H](OC(C)=O)[C@@H]1OC(C)=O` [Tri-O-acetyl-D-glucal], 1080 ± 50 µM; for `CC(=O)OCC(COC(C)=O)OC(C)=O` [Triacetin], 1640 ± 80 µM.
For “Naphthalene carboxylic acid methyl ester”, the Km was 710 ± 60 µM.

The next experiment has as its system T1, CN1E1. As to the kind of experiment: ester hydrolysis kinetics, p-nitrophenol release. Format: biochemical, uncultured bacterium. To be noted: pH 7.0 (b12; table heading says pH 8.0), 40°C. An excerpt:
ester hydrolysis kinetics, p-nitrophenol release on CN1E1
For `CC(=O)Oc1ccc([N+](=O)[O-])cc1` [pNP-acetate], the Km amounted to 190 ± 10 µM.
